The values below come from US20230117034A1, “PYRAZOLOTRIAZINES” (Bayer Aktiengesellschaft, priority 2019, published 2023).

Type in all cases: cell-based
Assay [1] concerns MDA-MB-231, human breast cancer cells. Put plainly: Proliferation assay MDA-MB-231 (crystal violet, 4 days). The conditions noted are these: Homo sapiens, MDA-MB-231, 96 h, MDA-MB-231 cells, median, read-out: Prolif-MDA MB-231, IC50-[mol/l] (median). In a few lines: (§1)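 Cells seeded at 4,000/well in medium with 10% FCS; after 24 h, compounds added at 0.01-10 µmol/L (0.1% DMSO) for 4 days. Glutaraldehyde-fixed, crystal violet-stained, absorbance at 595 nm normalized to zero-point plate (0%) and untreated cells (100%); IC50 by 4-parameter fit.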

The test system of assay [2] is CAL-120, human breast adenocarcinoma cells. Put plainly: Proliferation assay CAL-120 (crystal violet, 4 days). The conditions noted are these: Homo sapiens, CAL-120, 96 h, CAL-120 cells, median, read-out: Prolif-CAL-120, IC50-[mol/l] (median). In a few lines: as §1
In assay [3] the target is T1, CDK12 protein level in CAL-120 breast cancer cells (Homo sapiens, UniProt Q9NYV4).
T1 construct: endogenous in cells; host or cells: CAL-120 human breast cancer cells (DSMZ ACC 459)
Put plainly: CDK12 protein level: Protein Simple (CDK12, CAL-120). The conditions noted are these: CAL-120 cells, 18 h with compound, CDK12/HSP90 peak area ratio vs vehicle, median, read-out: CDK12 protein level in CAL-120 breast ca cells, DC50-[mol/l] (median). Here is the method:
CAL-120 human breast cancer cells (DSMZ ACC 459) were seeded at 300,000 cells/well in 6-well plates containing 2 mL of growth medium (DMEM, 10% FCS, glutamine) and incubated for 24 h at 37° C. in an humidified incubator. Test compounds were added at various concentrations, control wells received solvent (DMSO), and the plates were incubated for another 18 h at 37° C. Cells were washed 2 times with PBS and lysed in 75 microL lysis buffer (MSD-Puffer (MSD, #R60TX-2), +1% 505S+PhosSTOP (Roche #04906837001)+complete mini (Roche #04693159001)) by scraping. The lysates were pushed 2 times through Qiashedders followed by centrifugation at 14,000 rpm for 30-50 sec. The supernatant was stored at −20° C. Proteins were separated by applying 0.4 microgramms of protein lysate to Protein Simple 66-440 kDa (Protein Simple #SM-S002) size assay columns on a PEGGY SUE or SALLY SUE equipment according to the supplier's manual. CDK12 and HSP90 (loading control) were detected using anti-human CDK12 antibody (Cell Signaling Technologies (CST) #11793) at 1:25 dilution and anti-human HSP90 antibody (CST #4877) at 1:5,000 dilution. CDK12 and HSP90 peak areas were determined using Protein Simple Compass software. Ratio of CDK12/HSP90 peak areas were calculated for each sample, and […] values (degrading concentration to achieve 50% reduction relative to vehicle treated control) were determined by means of a 4 parameter fit.

Assay [4] has as its target T2, CYCLIN K (nuclear staining in CAL-120 cells) (Homo sapiens, UniProt O75909).
T2 construct: endogenous in cells; host or cells: CAL-120 human breast cancer cells (DSMZ ACC 459)
The assay is described as follows: CYCLIN K nuclear protein level: immunofluorescence high content analysis (CAL-120). The conditions noted are these: 24 h, 50% reduction of nuclear CCNK staining intensity, median, read-out: CYCLIN K degradation IF, DC50-[mol/l] (median). In a few lines:
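CAL-120 breast cancer cells treated in dose-response for 24 h at 37 °C, PFA-fixed and immunostained for cyclin K with Hoechst counterstain. Confocal imaging quantified nuclear intensity; DC50 is the concentration giving 50% reduction of nuclear CCNK staining, normalized to DMSO and control.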

For assay [5], the system named is BRCA1 mRNA expression in CAL-120 cells. Put plainly: qRT-PCR assay: BRCA1 mRNA expression in CAL-120. The conditions noted are these: Homo sapiens; Inhibition of BRCA1 mRNA expression in CAL-120 cells; median; read-out: RTqPCR-CAL-120, IC50, BRCA1 (median). The procedure: 3. qRT-PCR Assay: BRCA, ATR, MCL1 in MDA-MB-231, CAL-120
Tissue cultured human MDA-MB-231 human breast cancer cells were plated in 500 microL per well at 200,000 cells/well in a 24 well microtiter plate. After 24 h, the cells were exposed continuously for 24 h to test substances (substances were added with Tecan HP 0300 Dispenser). RNA was prepared using Qiagen RNeasy MiniKit (#74106), RNA was quantified using a NanoDrop Equipment, and 600 nano gamms of RNA was coverted to cDNA using a SuperScript VILO kit (Thermofisher #11755050) followed by qPCR amplification. BRCA1 and ATR gene expression was measured by RT-qPCR and normalised to GAPDH housekeeping gene expression. qPCR primer sets have been purchased from Thermo Fisher Scientific/Applied Biosystems: BRCA1, #Hs 01556193; ATR, #Hs 00992123; GAPDH, #Hs 03929097.

Each structure is given as a SMILES string.

T2 sequence (O75909 whole entry): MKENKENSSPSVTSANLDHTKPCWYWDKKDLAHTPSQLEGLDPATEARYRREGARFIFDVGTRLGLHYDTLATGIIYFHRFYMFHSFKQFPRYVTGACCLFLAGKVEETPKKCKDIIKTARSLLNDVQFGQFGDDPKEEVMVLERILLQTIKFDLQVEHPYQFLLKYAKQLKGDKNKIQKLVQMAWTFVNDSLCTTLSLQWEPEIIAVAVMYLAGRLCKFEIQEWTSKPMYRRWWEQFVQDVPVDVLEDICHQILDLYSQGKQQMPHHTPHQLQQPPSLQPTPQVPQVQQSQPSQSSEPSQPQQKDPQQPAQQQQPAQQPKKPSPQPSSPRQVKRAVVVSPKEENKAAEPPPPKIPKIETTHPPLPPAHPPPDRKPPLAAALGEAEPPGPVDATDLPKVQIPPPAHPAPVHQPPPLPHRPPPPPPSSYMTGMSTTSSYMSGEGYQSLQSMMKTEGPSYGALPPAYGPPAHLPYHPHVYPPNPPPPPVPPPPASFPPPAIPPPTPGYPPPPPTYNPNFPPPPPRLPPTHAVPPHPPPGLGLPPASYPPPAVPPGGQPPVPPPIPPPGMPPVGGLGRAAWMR
T2 sequence (Q9NYV4 whole entry partner): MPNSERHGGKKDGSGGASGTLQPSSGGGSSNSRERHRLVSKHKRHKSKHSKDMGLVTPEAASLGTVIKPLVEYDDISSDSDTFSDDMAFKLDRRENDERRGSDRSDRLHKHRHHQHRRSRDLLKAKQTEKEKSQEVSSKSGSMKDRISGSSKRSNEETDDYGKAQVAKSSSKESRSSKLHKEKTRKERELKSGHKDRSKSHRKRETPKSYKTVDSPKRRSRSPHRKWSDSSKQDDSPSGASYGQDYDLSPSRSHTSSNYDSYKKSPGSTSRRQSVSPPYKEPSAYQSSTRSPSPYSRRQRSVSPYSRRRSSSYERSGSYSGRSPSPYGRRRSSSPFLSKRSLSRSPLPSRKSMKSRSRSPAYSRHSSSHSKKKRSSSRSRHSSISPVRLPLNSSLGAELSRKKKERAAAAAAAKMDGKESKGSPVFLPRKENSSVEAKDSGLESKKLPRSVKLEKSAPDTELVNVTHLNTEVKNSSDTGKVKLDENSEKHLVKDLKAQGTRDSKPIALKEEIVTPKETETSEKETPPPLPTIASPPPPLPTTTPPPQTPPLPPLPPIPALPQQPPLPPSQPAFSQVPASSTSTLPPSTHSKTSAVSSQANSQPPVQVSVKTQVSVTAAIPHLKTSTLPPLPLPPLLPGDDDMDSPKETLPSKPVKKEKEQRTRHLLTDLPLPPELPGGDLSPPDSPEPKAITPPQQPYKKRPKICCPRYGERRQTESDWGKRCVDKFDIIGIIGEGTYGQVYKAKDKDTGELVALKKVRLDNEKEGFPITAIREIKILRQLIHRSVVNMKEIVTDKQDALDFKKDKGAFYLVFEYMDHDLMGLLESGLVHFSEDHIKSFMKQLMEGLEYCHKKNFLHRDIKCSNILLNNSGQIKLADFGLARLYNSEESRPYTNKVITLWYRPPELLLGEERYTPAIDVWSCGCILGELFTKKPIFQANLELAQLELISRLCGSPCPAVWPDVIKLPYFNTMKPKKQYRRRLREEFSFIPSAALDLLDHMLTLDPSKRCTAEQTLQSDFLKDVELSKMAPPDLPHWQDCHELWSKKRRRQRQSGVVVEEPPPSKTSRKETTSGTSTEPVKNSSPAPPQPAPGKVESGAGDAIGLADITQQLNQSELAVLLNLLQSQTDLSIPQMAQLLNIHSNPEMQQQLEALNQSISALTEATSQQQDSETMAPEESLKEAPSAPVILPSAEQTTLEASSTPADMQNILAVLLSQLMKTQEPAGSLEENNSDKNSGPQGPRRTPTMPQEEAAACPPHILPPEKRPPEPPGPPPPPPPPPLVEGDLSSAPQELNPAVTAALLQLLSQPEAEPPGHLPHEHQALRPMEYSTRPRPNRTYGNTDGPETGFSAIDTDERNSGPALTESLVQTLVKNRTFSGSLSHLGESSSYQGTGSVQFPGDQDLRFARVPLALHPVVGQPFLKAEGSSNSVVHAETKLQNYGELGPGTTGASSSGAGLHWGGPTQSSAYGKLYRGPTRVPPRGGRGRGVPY
T1 sequence (Q9NYV4 whole entry): as the sequence (Q9NYV4 whole entry partner) above
T1 sequence (O75909 whole entry partner): as the sequence (O75909 whole entry) above

As to `Fc1ccc2[nH]c(CNc3nc(N4CCNCC4)nc4c(C5CC5)cnn34)nc2c1` [Example 190, 8-cyclopropyl-N-[(5-fluoro-1H-benzimidazol-2-yl)methyl]-2-(piperazin-1-yl)pyrazolo[1,5-a][1,3,5]triazin-4-amine], the values for the IC50 in assay [1] and in assay [2] were 4.01 nM and 6.68 nM, respectively. The DC50 was 0.307 nM in assay [3] and 0.268 nM in assay [4].
`FC(F)(F)c1cnn2c(NCc3nc4ccccc4[nH]3)nc(N3CCOCC3)nc12` [Example 241, N-[(1H-benzimidazol-2-yl)methyl]-2-(morpholin-4-yl)-8-(trifluoromethyl) pyrazolo[1,5-a][1,3,5]triazin-4-amine]: the IC50 amounted to 28.9 nM in assay [1] and 29.6 nM in assay [2]. Moreover, the DC50 in assay [3] is 7.29 nM; in assay [4] it was 1.26 nM.
In the case of `Clc1cnn2c(NCc3nc4ccccc4[nH]3)nc(N3CCOCC3)nc12` [Example 15, N-[(1H-benzimidazol-2-yl)methyl]-8-chloro-2-(morpholin-4-yl)pyrazolo[1,5-a][1,3,5]triazin-4-amine], the figures for the IC50 in assay [5], in assay [1] and in assay [2] were 29.8 nM, 44.6 nM and 29.5 nM, respectively. The figures for the DC50 in assay [3] and in assay [4] were 2.98 nM and 4.51 nM, respectively.
